In patent EP0569598A1, “BENZOXAZINONE DERIVATIVE” (JAPAN TOBACCO INC., priority 1991, dated 1993):

How the values were obtained:
[1] = tested on: Neutrophile Infiltration of Carrageenin-induced Air Pouch inflammation; assay: Suppression of neutrophile infiltration in carrageenin-induced air pouch inflammation; assay type: in vivo, rat; details: Dose 10.9 µmol into the air pouch immediately after carrageenin, exudate cells five hours later, SD female rats
Protocol: SD female rats in 5 weeks old, having the weight in the range of 110 to 130g were used. A group was regarded to have 5 rats. In the first step, an air pouch was formed by a hypodermic injection of 8 ml of air on the back of a rat under ether anesthesia. Twenty four hours later, to the air pouch was added 5 ml of a saline containing 1% carrageenin (Wako Co., Ltd.). A test compound of the present invention, which has been dissolved in 200 µl DMSO (dimethylsulfoxide), was administered in the air pouch immediately after the carrageenin injection.
Five hours later, the rat was killed and the blood was released. Then, 5 ml of PBS containing EDTA (ethylenediamine tetraacetate) was injected in the air pouch. The exudate in the air pouch was washed and collected. An aliquot of the exudate was measured by a colter counter and determined the number of cells in the collected exudate.
The value subtracting migrating cell number in an experiment performed without carrageenin injection from the migrating cell number in a control experiment administering no the compound of the present invention was regarded as 100, the chemotaxis suppressing activity was determined as the following formula: Cell Infiltration Suppressing Activity (%) [formula] = 100 - S/T x 100 [formula] = 100 - (U - V )/(W - V) x 100 [formula] […]

[2] = molecular target: T1, human leukocyte elastase (HLE) (Homo sapiens, UniProt P08246); assay: HLE inhibitory activity (synthetic substrate, pNA release, absorbance 405 nm); assay type: biochemical; details: pH 8.6; HLE 5.63 nM, substrate 0.2625 mM; 37°C; read-out: IC₅₀ value HLE
T1 construct: the mixed solution was subjected to density gradient centrifugation, thereby obtaining neutrophiles; from tissue; host or cells: neutrophils from human vein blood (buffy coat)
T1 sequence (P08246 30-247 limits assumed): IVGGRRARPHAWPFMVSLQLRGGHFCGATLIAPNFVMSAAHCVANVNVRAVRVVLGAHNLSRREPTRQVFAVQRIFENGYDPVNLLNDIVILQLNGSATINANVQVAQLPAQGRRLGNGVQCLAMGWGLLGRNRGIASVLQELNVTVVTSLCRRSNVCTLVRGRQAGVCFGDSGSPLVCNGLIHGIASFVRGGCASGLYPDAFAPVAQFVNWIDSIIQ
Protocol: (§1) Activities of the Benzoxazine derivatives of the present invention against human leukocyte elastase (HLE), human sputum elastase (HSE), human cathepsin G (HCG), bovine pancreatic α-chmotrypsin (CYT) and bovine pancreatic trypsin (TRY) were measured by the following method.
A buffy coat was obtained by subjecting human vein blood to centrifugation. To the buffy coat was added distilled water to make a hypotonic solution, thereby bursting erythrocytes. To the residual blood cell component was added a 33.4% of Conrey 400 solution/9% Ficoll solution (the ratio of the former solution to the latter solution is 10:24), and the mixed solution was subjected to density gradient centrifugation, thereby obtaining neutrophiles. The neutrophile fraction was washed with Hanks' buffer for three times and then cells were recovered and cryopreserved at -80°C until use. The cryopreserved-cells were thawed with warm water at 37°C and suspended in a 9-fold volume of lysis buffer containing 0.1M Tris-HCl (pH7.5), 1M MgCl₂ and 0.1% Brij 35. The suspended cells are destroyed by means of polotoron with ice-cooling. The cell suspension was subjected to centrifugation at 100,000 x g for 1 hour. After removing precipitates, 2-fold volume of a Tris-HCl buffer containing 5 mM Tris-HCl(pH 7.5), 1M NaCl and 1.1% Brij 35 was added to the supernatant, thereby obtaining a crude solution of an enzyme extract. The crude solution was subjected to aprotinine affinity column and extracted with an elution buffer containing […] of glycine-HCl (pH 3.3), 1M NaCl and 0.1% Brij 35, thereby obtaining an active fraction. The obtained active fraction was further subjected to MONO S-ion-exchange chromatography and eluted with 2M NaCl linear gradient. The obtained fraction was dialyzed against 25 mM Tris-HCl (pH8.6) and lyophilized, thereby obtained an enzyme sample.
(§2) A test compound was dissolved in DMSO (for fluorometry) and prepared various concentration of the solution. To each concentration was added 2-fold volume of 0.2M Tris-HCl (pH8.6), thereby obtaining a test solution. Synthetic substrate (Funakoshi, L-1335) was dissolved in DMSO and 2-volume of 0.2M Tris-HCl (pH8.6) was added thereto, thereby obtaining a substrate solution. The reaction was performed using a microplate having 96 wells (Nunk). Six-time reactions were repeated for each concentration. One handred and forty µl of an enzyme solution containing 0.2M Tris-HCl (pH8.6), 30 µl of a test solution and 30 µl of a substrate solution per well of the microplate were respectively pre-incubated at 37°C for 10 minutes. After completion of the incubation, the enzyme solution was mixed with the test sample and incubated for 10 minutes and then the substrate solution was added to perform an enzyme reaction. The absorbance of released P-nitroanilide (PNA) was measured at the wave length of 405 nm by means of a microplate reader (MTP-100; CORONA), thereby determining the substrate decomposition. The rate of the substrate decomposition was shown as an average value of 6 repeated reactions. The inhibitory concentration of a test compound relative to the amount of the substrate decomposition in the reaction mixture without a test compound was regarded as an IC₅₀ value. The final concentration of HLE and a synthesized substrate in the reaction mixture were 5.63 nM and 0.2625 mM, respectively.

[3] = molecular target: T2, bovine pancreatic α-chmotrypsin (CYT) (Bos taurus, UniProt P00766); assay: CYT inhibitory activity (synthetic substrate, pNA release); assay type: biochemical; details: pH 8.0; CYT 3.4 nM, substrate 0.273 mM; read-out: IC₅₀ value CYT
T2 construct: bovine pancreatic α-chmotrypsin (CYT); purchased Sigma Co., Ltd
Protocol: as §1, §2
a) Enzyme obtaining route CYT was obtained from Sigma Co., Ltd.
Substantially the same method as used in the measurement of the HLE inhibitory activity was used except that a buffer solution (pH 8.0) was used. The final concentration of CYT and synthetic substrate (Funakoshi, L-1010) in a reaction mixture were 3.4 nM and 0.273 mM, respectively.

[4] = molecular target: T3, human cathepsin G (HCG) (Homo sapiens, UniProt P08311); assay: HCG inhibitory activity (synthetic substrate, pNA release); assay type: biochemical; details: pH 7.5; HCG 50 nM, substrate 0.5 mM; read-out: IC₅₀ value HCG
T3 construct: purchased Cosmo Bio Inc
T3 sequence (P08311 21-244): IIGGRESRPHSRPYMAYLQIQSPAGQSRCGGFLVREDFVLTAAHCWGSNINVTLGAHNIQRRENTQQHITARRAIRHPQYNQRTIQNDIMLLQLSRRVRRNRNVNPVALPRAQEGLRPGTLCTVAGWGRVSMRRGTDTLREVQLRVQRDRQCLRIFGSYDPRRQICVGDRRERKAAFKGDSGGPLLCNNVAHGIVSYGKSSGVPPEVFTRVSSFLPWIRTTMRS
Protocol: as §1, §2
a) Enzyme obtaining route HCG was obtained from Cosmo Bio Inc.
The same method as in the measurement of HLE inhibitory activity was used except that a buffer solution (pH 7.5) was used. The final concentration of HCG and synthetic substrate (Funakoshi, L-1010) in a reaction mixture were 50 nM and 0.5 mM, respectively.

Cc1cccc2nc([C@@H](NC(=O)COC(c3ccccc3)c3ccccn3)C(C)C)oc(=O)c12 (mixture of isomers) [Compound 3, 5-methyl-2-[2-methyl-1(S)-[[[(±)-α-(2-pyridyl)benzyloxy]acetyl]amino]propyl]-4H-3,1-benzoxazin-4-one]
Rate (%) of Suppressing Cell Infietration [1]: 33.9%
Cell Infiltration ([1]; control regarded as 100): 66.1
IC50 [2]: 340 nM
IC50 [3]: 2080 nM
IC50 [4]: 58300 nM
